{
  "source": "ChEMBL document CHEMBL1201862",
  "about": "“PubChem BioAssay data set” (2004)",
  "key": {"[1]": {"assay": "A Cell Based Secondary Assay To Explore Cytotoxicity of Compounds that Sensitize Mycobacterium Tuberculosis to Beta-Lactam Antibiotics.", "assay_type": "functional"}, "[2]": {"biological_target": "T1, Apoptotic protease-activating factor 1 (Homo sapiens, UniProt O14727)", "T1 sequence (O14727 whole entry)": "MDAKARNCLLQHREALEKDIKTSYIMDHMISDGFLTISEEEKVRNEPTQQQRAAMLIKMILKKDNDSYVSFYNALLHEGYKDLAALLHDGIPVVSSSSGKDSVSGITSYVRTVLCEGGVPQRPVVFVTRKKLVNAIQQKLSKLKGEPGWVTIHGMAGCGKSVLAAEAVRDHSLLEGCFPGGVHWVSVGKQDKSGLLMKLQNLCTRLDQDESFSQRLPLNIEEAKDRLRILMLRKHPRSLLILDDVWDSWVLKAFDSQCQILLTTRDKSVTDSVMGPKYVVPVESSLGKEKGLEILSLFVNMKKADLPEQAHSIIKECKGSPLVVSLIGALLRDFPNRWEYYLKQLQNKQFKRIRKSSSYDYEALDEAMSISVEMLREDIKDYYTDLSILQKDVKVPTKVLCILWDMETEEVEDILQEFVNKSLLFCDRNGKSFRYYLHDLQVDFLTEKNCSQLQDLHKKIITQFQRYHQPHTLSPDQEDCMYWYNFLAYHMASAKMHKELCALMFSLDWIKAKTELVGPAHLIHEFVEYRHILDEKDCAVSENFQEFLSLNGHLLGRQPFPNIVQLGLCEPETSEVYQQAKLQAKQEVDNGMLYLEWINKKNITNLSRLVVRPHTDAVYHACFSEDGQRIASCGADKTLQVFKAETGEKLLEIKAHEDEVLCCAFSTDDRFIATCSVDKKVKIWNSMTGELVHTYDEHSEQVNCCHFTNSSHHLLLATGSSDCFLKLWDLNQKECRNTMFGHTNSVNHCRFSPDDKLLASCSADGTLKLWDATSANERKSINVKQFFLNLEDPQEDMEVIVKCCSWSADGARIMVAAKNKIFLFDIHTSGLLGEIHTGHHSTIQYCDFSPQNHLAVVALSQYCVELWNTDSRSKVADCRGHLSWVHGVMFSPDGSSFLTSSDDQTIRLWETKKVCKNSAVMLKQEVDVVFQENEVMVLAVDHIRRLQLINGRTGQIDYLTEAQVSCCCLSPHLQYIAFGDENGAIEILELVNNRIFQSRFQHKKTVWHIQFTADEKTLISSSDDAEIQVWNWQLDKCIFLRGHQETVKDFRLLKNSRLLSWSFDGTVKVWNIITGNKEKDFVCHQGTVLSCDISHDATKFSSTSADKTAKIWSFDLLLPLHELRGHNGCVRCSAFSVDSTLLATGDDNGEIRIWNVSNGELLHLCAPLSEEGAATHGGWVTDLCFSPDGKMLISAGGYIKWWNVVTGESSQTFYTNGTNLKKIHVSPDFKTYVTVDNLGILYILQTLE", "assay_type": "functional"}, "[3]": {"assay": "enhancers of respiration in Yfh1-depleted yeast, dose response, Friedreich's ataxia, plus single-dose screen (AID 1465);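 further: yeast depleted of Yfh1p frataxin homolog grown on glycerol needing respiration; WST-1 tetrazolium dye reduction as measure of cellular dehydrogenase metabolic activity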", "assay_type": "functional"}, "[4]": {"biological_target": "Induced myeloid leukemia cell differentiation protein Mcl-1 (Homo sapiens, UniProt Q07820)", "sequence (Q07820 whole entry)": "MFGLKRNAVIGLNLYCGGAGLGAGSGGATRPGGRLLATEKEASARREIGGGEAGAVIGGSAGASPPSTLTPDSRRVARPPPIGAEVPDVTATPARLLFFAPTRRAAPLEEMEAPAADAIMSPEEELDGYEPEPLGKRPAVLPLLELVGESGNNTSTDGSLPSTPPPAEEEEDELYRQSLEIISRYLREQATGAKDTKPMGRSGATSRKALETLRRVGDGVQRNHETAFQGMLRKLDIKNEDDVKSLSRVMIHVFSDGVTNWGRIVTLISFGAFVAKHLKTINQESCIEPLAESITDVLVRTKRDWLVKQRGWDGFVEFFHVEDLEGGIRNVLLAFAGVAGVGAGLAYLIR", "assay_type": "functional"}, "[5]": {"biological_target": "T2, Rac GTPase-activating protein 1 (Homo sapiens, UniProt Q9H0H5)", "T2 sequence (Q9H0H5 whole entry)": "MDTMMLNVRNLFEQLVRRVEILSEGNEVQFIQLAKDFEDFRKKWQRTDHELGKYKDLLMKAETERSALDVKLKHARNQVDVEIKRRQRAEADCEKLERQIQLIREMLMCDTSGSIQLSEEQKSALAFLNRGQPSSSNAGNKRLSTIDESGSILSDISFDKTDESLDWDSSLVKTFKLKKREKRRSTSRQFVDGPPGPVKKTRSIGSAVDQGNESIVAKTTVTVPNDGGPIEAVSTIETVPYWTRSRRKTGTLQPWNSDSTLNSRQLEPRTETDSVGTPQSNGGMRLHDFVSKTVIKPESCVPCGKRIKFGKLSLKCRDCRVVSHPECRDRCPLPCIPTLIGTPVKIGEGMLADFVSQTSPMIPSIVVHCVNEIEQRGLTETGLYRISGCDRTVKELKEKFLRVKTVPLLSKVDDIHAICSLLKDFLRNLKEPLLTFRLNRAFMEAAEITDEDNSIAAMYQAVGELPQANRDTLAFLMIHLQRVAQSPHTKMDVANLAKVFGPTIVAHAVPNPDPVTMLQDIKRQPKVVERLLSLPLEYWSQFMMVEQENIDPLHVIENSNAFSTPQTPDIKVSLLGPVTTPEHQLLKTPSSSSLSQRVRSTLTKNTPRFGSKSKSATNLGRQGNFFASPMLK", "assay": "MgcRacGAP GTPase-activating activity inhibitors, confirmation, biochemical, ADP Hunter fluorescence, primary and confirmatory (AID 624330)", "assay_type": "functional"}, "[6]": {"biological_target": "Mothers against decapentaplegic homolog 3 (Homo sapiens, UniProt P84022)", "sequence (P84022 whole entry)": "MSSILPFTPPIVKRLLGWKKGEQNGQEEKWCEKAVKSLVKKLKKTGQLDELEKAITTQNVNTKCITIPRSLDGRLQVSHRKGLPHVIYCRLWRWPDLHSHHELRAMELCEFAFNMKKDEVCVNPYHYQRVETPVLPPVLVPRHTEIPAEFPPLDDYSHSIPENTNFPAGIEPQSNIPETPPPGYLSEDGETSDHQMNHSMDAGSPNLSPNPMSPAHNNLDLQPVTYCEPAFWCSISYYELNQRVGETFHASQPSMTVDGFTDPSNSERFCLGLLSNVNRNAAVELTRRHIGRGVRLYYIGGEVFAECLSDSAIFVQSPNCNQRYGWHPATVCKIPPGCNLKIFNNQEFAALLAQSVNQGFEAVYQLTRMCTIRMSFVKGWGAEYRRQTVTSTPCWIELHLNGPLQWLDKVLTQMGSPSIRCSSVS", "assay": "SMAD3 transcription factor inhibitors, dose response (AID 715)", "assay_type": "functional"}, "H9c2": {"tested_on": "H9c2", "assay": "cells", "assay_type": "functional, cell-based", "conditions": "Rattus norvegicus, H9c2, Myocardium"}, "[7]": {"biological_target": "T3, Heat shock factor protein 1 (Mus musculus, UniProt P38532)", "T3 sequence (P38532 whole entry)": "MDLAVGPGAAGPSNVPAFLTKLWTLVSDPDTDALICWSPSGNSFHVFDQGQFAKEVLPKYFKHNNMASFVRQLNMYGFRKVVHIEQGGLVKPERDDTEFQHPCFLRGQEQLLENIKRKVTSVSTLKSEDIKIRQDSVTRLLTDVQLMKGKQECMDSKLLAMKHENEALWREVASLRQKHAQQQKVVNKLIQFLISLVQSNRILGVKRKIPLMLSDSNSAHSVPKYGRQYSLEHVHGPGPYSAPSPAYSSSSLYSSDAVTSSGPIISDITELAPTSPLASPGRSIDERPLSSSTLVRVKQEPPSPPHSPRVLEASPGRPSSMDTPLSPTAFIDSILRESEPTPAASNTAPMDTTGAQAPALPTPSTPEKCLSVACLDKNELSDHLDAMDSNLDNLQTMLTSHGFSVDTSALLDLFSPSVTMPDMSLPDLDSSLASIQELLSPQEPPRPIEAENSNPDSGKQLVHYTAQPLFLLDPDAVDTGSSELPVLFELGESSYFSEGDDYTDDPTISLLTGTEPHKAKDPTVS", "assay": "HSF1 potentiators in luciferase reporter cells, confirmation, cell-based, NIH3T3, luminescence, dose retest (AID 435004);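 further: stress induced by proteasome inhibitor MG132 added 30 min after compound; actives raise luminescence as potentiators of the MG132 stress response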", "assay_type": "functional"}, "[8]": {"biological_target": "Peroxisome proliferator-activated receptor gamma/Nuclear receptor coactivator 2 (Homo sapiens, UniProt P37231)", "assay": "(§1) TR-FRET dose response biochemical High Throughput Screening assay for agonists of the steroid receptor coactivator 2 (SRC-2) recruitment by the peroxisome proliferator-activated receptor gamma (PPAR gamma): non-selective agonists. [Related pubchem assays: 1297, 1032 ]", "assay_type": "functional"}, "[9]": {"biological_target": "Peroxisome proliferator-activated receptor gamma/Nuclear receptor coactivator 1 (Homo sapiens, UniProt P37231)", "sequence (P37231 whole entry)": "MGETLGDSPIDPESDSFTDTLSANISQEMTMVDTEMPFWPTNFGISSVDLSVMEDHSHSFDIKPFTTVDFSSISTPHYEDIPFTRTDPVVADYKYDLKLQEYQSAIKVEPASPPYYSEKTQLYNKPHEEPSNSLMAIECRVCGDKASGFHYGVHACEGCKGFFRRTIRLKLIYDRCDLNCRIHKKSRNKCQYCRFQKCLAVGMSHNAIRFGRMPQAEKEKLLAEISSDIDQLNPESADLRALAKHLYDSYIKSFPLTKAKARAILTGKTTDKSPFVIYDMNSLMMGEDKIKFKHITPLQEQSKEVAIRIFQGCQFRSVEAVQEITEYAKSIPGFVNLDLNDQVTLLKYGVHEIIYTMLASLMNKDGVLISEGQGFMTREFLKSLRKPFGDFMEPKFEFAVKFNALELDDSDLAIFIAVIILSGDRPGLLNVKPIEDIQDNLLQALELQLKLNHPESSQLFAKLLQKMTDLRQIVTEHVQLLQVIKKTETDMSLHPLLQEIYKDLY", "sequence (Q15788 whole entry, further chain)": "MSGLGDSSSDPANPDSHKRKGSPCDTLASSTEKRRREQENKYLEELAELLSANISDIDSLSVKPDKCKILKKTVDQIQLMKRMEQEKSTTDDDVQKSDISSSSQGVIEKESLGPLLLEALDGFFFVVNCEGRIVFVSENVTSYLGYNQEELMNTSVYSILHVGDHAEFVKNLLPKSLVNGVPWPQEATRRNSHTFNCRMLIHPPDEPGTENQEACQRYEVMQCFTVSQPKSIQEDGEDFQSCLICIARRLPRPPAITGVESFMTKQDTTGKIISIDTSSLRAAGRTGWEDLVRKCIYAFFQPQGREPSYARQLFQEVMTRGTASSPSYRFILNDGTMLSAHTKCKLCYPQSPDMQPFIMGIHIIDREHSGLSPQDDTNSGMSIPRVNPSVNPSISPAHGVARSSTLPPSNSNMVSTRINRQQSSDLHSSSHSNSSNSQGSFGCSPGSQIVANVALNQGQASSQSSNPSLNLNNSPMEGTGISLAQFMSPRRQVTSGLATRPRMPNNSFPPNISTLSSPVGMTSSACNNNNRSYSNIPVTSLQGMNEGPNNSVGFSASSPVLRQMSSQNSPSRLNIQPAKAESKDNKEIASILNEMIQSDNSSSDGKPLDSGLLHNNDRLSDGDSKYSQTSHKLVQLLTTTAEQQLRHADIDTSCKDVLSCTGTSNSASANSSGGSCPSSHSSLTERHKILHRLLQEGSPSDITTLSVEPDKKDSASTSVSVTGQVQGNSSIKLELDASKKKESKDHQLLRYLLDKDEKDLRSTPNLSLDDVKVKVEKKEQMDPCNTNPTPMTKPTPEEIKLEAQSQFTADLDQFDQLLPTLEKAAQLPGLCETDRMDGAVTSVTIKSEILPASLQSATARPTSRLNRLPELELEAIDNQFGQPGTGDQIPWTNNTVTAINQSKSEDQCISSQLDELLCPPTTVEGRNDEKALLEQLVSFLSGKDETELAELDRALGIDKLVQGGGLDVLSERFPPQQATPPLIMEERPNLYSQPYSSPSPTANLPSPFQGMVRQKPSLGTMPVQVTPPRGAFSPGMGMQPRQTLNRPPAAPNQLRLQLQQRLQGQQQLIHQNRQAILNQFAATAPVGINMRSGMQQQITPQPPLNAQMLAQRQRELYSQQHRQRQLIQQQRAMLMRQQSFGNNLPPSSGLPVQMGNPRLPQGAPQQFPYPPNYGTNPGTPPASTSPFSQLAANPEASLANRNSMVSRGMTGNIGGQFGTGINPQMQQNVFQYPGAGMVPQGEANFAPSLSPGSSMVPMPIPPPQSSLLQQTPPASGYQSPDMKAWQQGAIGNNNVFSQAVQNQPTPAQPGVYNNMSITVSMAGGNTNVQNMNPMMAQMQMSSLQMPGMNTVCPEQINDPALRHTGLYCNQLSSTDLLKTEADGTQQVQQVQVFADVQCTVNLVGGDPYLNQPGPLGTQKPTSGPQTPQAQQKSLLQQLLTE", "assay": "as §1, with “1 (SRC-1)” for “2 (SRC-2)”, “assays (depositor defined):AID1300, AID1808, AID504735, AID631]” for “assays: 1297, 1032 ]”", "assay_type": "protein assay"}, "[10]": {"biological_target": "Peroxisome proliferator-activated receptor gamma/Nuclear receptor coactivator 3 (Homo sapiens, UniProt P37231)", "sequence (P37231 whole entry)": "as the sequence (P37231 whole entry) above", "sequence (Q9Y6Q9 whole entry, further chain)": "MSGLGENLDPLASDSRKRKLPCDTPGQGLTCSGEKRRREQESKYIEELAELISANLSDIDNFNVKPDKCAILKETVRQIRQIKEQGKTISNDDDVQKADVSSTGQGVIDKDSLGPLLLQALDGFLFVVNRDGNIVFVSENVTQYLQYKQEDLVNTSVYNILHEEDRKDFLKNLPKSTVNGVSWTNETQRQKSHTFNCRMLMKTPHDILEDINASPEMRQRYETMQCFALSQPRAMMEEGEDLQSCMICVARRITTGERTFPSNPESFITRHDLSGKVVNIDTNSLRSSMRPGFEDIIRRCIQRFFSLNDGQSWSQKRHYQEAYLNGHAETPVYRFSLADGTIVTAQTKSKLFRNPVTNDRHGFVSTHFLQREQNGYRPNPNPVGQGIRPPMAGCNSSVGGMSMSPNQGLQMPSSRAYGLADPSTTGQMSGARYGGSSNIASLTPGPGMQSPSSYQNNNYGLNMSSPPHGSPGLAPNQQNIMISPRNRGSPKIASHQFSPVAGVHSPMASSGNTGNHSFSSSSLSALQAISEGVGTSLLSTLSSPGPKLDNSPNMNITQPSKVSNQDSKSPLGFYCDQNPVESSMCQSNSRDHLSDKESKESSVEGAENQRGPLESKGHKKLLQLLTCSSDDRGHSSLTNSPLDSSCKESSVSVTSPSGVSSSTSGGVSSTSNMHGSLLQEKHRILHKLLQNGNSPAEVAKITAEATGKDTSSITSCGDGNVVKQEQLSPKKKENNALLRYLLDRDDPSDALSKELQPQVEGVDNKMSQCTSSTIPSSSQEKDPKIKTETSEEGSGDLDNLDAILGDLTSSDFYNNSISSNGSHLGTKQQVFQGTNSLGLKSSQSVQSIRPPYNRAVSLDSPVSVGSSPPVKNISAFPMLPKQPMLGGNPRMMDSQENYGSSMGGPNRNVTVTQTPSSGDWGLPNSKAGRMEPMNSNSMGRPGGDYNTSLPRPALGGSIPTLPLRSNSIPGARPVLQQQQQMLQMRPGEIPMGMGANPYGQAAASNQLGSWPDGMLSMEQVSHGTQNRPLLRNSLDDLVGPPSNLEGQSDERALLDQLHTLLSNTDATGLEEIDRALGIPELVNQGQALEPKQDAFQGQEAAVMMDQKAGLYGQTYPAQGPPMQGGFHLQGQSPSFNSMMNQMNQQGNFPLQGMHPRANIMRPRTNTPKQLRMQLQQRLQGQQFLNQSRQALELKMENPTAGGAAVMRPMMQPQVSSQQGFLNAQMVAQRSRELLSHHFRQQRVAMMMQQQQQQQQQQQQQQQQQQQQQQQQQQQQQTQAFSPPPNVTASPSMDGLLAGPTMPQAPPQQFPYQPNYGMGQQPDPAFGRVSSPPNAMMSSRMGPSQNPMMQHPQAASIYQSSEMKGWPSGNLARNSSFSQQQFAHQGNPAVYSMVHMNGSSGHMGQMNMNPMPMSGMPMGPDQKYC", "assay": "as §1, with “3 (SRC-3)” for “2 (SRC-2)”, “1301 (Confirmation screen.), 1048 (Primary screen.)]” for “1297, 1032 ]”", "assay_type": "functional"}, "Estrogen receptor beta": {"biological_target": "Estrogen receptor beta (Homo sapiens, UniProt Q92731)", "assay": "ERβ–SRC-3 coactivator interaction inhibitors, confirmation, orthogonal assay, biochemical, ELISA, streptavidin-HRP readout (AID 1060)"}},
  "note": "Activity calls are given as the source filed them.",
  "data": [
    {"smiles": "Cc1nn(-c2ccccc2)c(O)c1/C=N/NC(=O)c1cccc([N+](=O)[O-])c1", "values": [
      {"measurement": "CC50", "setting": "[1]", "value": "7.57 µM (active)"},
      {"measurement": "IC50", "setting": "[2]", "value": "13.2 µM (active)"}
    ]},
    {"smiles": "CC1=NN(C(N)=S)C(=O)C1N=Nc1ccc(O)cc1", "note": "(stereo not drawn)", "values": [
      {"measurement": "EC50", "setting": "[3]", "value": "> 100 µM (active)"},
      {"measurement": "IC50", "setting": "[4]", "value": "9.66 µM (active)"},
      {"measurement": "IC50", "setting": "[5]", "value": "16.6 µM (active)"}
    ]},
    {"smiles": "Cc1ccc(N2C(=O)CS/C2=C(\\C(Cl)=C(Cl)Cl)[N+](=O)[O-])cc1", "values": [
      {"measurement": "IC50", "setting": "[6]", "value": "27.7 µM (active)"},
      {"measurement": "IC50", "setting": "H9c2", "value": "> 79 µM (inactive)"}
    ]},
    {"smiles": "COC(=O)c1ccc(CSc2ncnc3c2oc2ccccc23)o1", "values": [
      {"measurement": "EC50", "setting": "[7]", "value": "> 260 µM (inactive)"},
      {"measurement": "EC50", "setting": "[8]", "value": "> 8.82 µM (not active)"},
      {"measurement": "IC50", "setting": "[6]", "value": "14.7 µM (active)"},
      {"measurement": "EC50", "setting": "[9]", "value": "29.1 µM (inactive)"},
      {"measurement": "EC50", "setting": "[10]", "value": "> 79.4 µM (not active)"},
      {"measurement": "IC50", "setting": "Estrogen receptor beta", "value": "0.0578 µM (not active)"}
    ]}
  ]
}
